From article PMC8998904, “Identification and New Indication of Melanin-Concentrating Hormone Receptor 1 (MCHR1) Antagonist Derived from Machine Learning and Transcriptome-Based Drug Repositioning Approaches” (International Journal of Molecular Sciences, 2022)

Tests used:
hERG channel = target: T1, hERG channel (Homo sapiens, UniProt Q12809); experiment: Patch clamp assay on HEK293-hERG cells; type: cell-based
T1 construct: host or cells: HEK293
Procedure: (§1) An in vitro time-resolved fluorescence (TRF)-based binding assay for MCHR1 was performed to identify the MCHR1 antagonist from the 19 predicted compounds selected through in silico screening. […] In addition, a patch clamp assay was performed to measure the cardiotoxicity of the five compounds. […] Consequently, of the five compounds, only KRX-104130 and KRX-104165 overcame cardiotoxicity.
Patch clamp assays were performed on HEK293 cells stably expressing the hERG channel (HEK293-hERG cells; Genionics, Switzerland). When the cells were more than 80% confluent, they were freshly dislodged from flasks with 0.05% trypsin–EDTA for 1–2 min, spun down twice at 700× g, suspended into the extracellular solution (in mmol/L at 1.8 × 10^6 per mL: 137 NaCl, 4 KCl, 1 MgCl2, 1.8 CaCl2, 10 HEPES, and 10 glucose, pH 7.4, adjusted with NaOH), and dispensed into a patch clamp plate. The cell density was adjusted to 2–3 × 10^5 cells/mL. After dispensing, the cells were applied to the AutoPatch system (PatchXpress 7000A, Molecular Devices, Sunnyvale, CA, USA). The hERG currents were evoked by two voltage pulses at 3 s interval. The voltage pulse consisted of a 100-ms step to −30 mV, a conditioning prepulse (2 s duration, +25 mV or +45 mV), followed by a test pulse (2 s duration, −30 mV) from a holding potential of −70 mV. After a 3 s interval at −70 mV, a second pulse protocol was applied, consisting of a 100-ms step to −30 mV, a prepulse (2 s duration, +45 mV), followed by a test pulse (2 s duration, −30 mV). Leak currents were linearly subtracted, extrapolating the current elicited by a 100-ms step to −80 mV from a holding potential of −70 mV. The experiment was initiated with a buffer control in the absence of the drug to calculate the IC50. The test compound was applied at low to high concentrations, and the tail current was monitored continuously. The compound effects were tested using six concentrations in three-fold dilutions from 1 to 300 µM.

[1] = target: T2, human recombinant MCH-1 receptor (Homo sapiens, UniProt Q99705); experiment: Time-resolved fluorescence (TRF)-based MCHR1 receptor-binding assay with Eu-MCH; conditions: for inhibition at 10 µM: TRF MCHR1 binding, read-out: inhibition rate (%) at 10 μM; for IC50: TRF-based binding, 2 nM Eu-MCH
T2 construct: purchased Euroscreen S.A. (PerkinElmer)
T2 sequence (Q99705 whole entry): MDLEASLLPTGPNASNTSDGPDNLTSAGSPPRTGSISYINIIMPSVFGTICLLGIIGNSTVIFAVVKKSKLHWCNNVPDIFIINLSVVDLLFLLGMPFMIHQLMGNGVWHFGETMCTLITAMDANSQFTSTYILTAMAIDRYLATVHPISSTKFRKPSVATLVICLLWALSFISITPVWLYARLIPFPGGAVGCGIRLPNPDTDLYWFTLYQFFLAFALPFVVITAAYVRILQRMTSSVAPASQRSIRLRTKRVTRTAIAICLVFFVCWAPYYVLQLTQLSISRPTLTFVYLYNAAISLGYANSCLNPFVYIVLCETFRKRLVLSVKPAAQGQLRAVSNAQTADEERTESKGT
Procedure: as §1
The receptor-binding affinities of the generated 19 compounds were determined by time-resolved fluorescence (TRF)-based receptor-binding assays using europium-labeled MCH (Eu-MCH) in 96-well AcroWell™ plates. The MCH labeled with europium at the N-1 position was supplied by the Wallac Labeling Service (PerkinElmer, Inc., Waltham, MA, USA). The human recombinant MCH-1 receptor membrane preparation (MCH-1/SLC1 membrane) was obtained from Euroscreen S.A. (PerkinElmer). The binding assay buffer contained 25 mM 4-(2-hydroxyethyl)-1-piperazineethanesulfonic acid (HEPES; pH 7.4), 5 mM MgCl2, 1 mM CaCl2, and 0.5% bovine serum albumin. Total binding was determined from the binding reaction in the presence of 2 nM Eu-MCH and 5 μg/unit MCH-1 receptor membrane for 90 min. Nonspecific Eu–MCH binding was defined in the presence of 0.5 µM unlabeled MCH. After incubation for 90 min, the plate was washed three times with 300 µL of ice-cold 25 mM HEPES buffer (pH 7.4) in an automatic vacuum filtration system. The Eu was dissociated from the bound ligand by the addition of 150 µL of DELFIA enhancement solution (Perkin Elmer) and incubated for 10 min with shaking. Fluorescence signals from dissociated Eu were measured using a multilabel reader (Envision, PerkinElmer) with an excitation wavelength (340 nm) and an emission wavelength (615 nm).

[2] = Plasma pharmacokinetic profile in mice (I.V. and P.O.); conditions: mice, pharmacokinetic study

T1 sequence (Q12809 whole entry): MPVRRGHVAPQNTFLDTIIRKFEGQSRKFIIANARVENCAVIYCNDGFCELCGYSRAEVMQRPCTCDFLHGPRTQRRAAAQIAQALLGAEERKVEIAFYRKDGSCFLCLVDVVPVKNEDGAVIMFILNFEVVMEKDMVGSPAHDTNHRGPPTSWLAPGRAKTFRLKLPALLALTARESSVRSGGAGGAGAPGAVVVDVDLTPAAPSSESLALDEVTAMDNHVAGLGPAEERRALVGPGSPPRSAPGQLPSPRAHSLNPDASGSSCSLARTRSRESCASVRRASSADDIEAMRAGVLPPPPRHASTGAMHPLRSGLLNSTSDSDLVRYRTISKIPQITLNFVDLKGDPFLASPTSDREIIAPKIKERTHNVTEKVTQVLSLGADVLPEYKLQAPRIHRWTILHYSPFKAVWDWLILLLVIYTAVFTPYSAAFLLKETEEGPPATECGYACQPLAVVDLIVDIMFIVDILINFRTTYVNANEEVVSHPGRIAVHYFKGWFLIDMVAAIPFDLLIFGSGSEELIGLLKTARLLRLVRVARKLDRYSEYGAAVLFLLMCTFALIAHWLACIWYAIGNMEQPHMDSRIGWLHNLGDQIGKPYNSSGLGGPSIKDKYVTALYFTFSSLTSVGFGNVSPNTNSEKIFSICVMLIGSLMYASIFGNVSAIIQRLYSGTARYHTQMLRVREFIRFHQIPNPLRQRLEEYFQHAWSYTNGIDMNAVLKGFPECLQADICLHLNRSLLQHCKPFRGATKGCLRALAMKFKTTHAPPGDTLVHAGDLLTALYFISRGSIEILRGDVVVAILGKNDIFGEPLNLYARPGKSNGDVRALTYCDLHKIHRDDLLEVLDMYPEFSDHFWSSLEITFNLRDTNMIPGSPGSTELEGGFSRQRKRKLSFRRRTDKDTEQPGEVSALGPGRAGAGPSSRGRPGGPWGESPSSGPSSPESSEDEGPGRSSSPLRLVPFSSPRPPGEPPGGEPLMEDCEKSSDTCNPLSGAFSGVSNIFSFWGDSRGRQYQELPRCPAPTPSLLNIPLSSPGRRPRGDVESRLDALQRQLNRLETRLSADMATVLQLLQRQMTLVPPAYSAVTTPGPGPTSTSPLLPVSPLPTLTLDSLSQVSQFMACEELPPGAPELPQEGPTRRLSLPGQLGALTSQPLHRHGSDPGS

inhibition at 10 µM [1] | IC50 [1] | SMILES | IC50 (hERG channel) | Tolerability / death after administration to mice [2]
100% | 50 nM | COc1nc2cc(F)c(F)cc2nc1NC(=O)NC1CCN(Cc2ccc3[nH]ccc3c2)CC1 [KRX-104156] | 920 nM | 
96% | 10 nM | CCN(CC)CCN(C)c1cnc2cc(NC(=O)c3ccc(-c4ccc(Cl)cc4)cc3)ccc2n1 [KRX-104137] | 420 nM | 

SMILES | inhibition at 10 µM [1] | IC50 [1] | IC50 (hERG channel) | Tolerability / death after administration to mice [2]
COc1nc2cc(F)c(F)cc2nc1NC(=O)NC1CCN(Cc2cn(C(C)=O)c3ccccc23)CC1 [KRX-104165] | 94.3% | 60 nM | > 50000 nM | the mouse died immediately after administration
